Laboratory results taken from PMC7660916, “The Salmonella enterica serovar Typhimurium virulence factor STM3169 is a hexuronic acid binding protein component of a TRAP transporter” (Microbiology, 2020).

Target: STM3169 (Salmonella enterica, UniProt Q8ZM02)
Test: intrinsic fluorescence titration; supported by MST (KD […]) and thermal shift
Format: binding

STM3169, sequence (Q8ZM02 entry or part of it): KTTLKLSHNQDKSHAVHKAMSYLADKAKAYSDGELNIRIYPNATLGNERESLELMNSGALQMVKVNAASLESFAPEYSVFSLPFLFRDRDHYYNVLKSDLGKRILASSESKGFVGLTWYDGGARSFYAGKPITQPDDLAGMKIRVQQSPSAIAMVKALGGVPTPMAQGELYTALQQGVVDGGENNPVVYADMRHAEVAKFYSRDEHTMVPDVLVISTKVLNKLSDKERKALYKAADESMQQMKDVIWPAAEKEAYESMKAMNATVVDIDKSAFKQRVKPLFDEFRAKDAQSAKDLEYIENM

O=C(O)[C@H]1OC(O)[C@H](O)[C@@H](O)[C@@H]1O (stereo partly drawn) [D-glucuronate]
Kd: 170 ± 77 nM
